≈ marks a conversion by molar mass, not a printed value.
Legend:
[1] = system: Streptomyces fradiae NRRL 11271; assay: Antibiotic sensitivity (sensitivity discs), NRRL 11271; format: cell-based; conditions: discs: chloramphenicol 30 μg, erythromycin 15 μg, cephaloridine 30 μg, lincomycin 2 μg, polymyxin B 300 units, streptomycin 10 μg, tetracycline 30 μg, vancomycin 30 μg; note: key: -: resistance (no zones of inhibition); +: sensitivity (zones of inhibition); trace of sensitivity
Text: (§1) ^a Determined by using sensitivity discs padded onto seededagar

[2] = system: Streptomyces fradiae E2724.1; assay: Antibiotic sensitivity (sensitivity discs), E2724.1; format: cell-based; conditions: discs: chloramphenicol 30 μg, erythromycin 15 μg, cephaloridine 30 μg, lincomycin 2 μg, polymyxin B 300 units, streptomycin 10 μg, tetracycline 30 μg, vancomycin 30 μg; note: key: -: resistance (no zones of inhibition); +: sensitivity (zones of inhibition); trace of sensitivity
Text: as §1

[3] = system: Streptococcus pneumoniae Park I; assay: MIC, standard agar-dilution assay, Streptococcus pneumoniae Park I; format: cell-based
[4] = system: Streptococcus pyogenes C203; assay: In vivo activity against experimental bacterial infection in mice (ED50); conditions: C203, sc, subcutaneous, two doses, bacterial challenge 268 X LD50, effective dose to protect 50% of the test animals
Experimental: The DMOT compounds have shown in vivo antimicrobial activity against experimental bacterial infections. When two doses of test compound were administered to mice in experimental infections, the activity observed was measured as an ED50 value [effective dose in mg/kg to protect 50% of the test animals: see Warren Wick, et al., J. Bacteriol. 81, 233-235 (1961)].
^a Subcutaneous; mg/kg × 2

[5] = Electrometric titration of DMOT (pKa); format: physicochemical; conditions: 66% aqueous dimethylformamide
Text: Electrometric titration of DMOT in 66% aqueous dimethylformamide indicates the presence of a titratable group with a pKa value of about 7.3.

[6] = system: gram-positive microorganisms and Mycoplasma species; assay: Growth inhibition of pathogenic organisms (general statement); format: cell-based
[7] = system: Streptococcus sp. (Group D) 282; assay: MIC, standard agar-dilution assay, Streptococcus sp. (Group D) 282; format: cell-based
Solubility = format: physicochemical; conditions: free base
Pasteurella hemolytica = assay: MIC, standard agar-dilution assay, Pasteurella hemolytica; format: cell-based
Pasteurella multocida = assay: MIC, standard agar-dilution assay, Pasteurella multocida; format: cell-based
[8] = system: Staphylococcus aureus 3055; assay: MIC, standard agar-dilution assay, Staphylococcus aureus 3055; format: cell-based
Mycoplasma hyorhinis = assay: MIC, standard agar-dilution assay, Mycoplasma hyorhinis; format: cell-based
Mycoplasma gallisepticum = assay: MIC, standard agar-dilution assay, Mycoplasma gallisepticum; format: cell-based; conditions: Mycoplasmoides gallisepticum
[9] = system: Streptococcus pyogenes C203; assay: MIC, standard agar-dilution assay, Streptococcus pyogenes C203; format: cell-based
Mycoplasma hyopneumoniae = assay: MIC, standard agar-dilution assay, Mycoplasma hyopneumoniae; format: cell-based; conditions: Mesomycoplasma hyopneumoniae

Q: Which “Antibiotic sensitivity, NRRL 11271” value [1] does the source give for O=C(Cc1cccs1)N[C@@H]1C(=O)N2C(C(=O)[O-])=C(C[n+]3ccccc3)CS[C@H]12 [Cephaloridine] here?
A: +

Q: And the “Antibiotic sensitivity, E2724.1” value [2]?
A: +

Q: For O=C(N[C@H](CO)[C@H](O)c1ccc([N+](=O)[O-])cc1)C(Cl)Cl [Chloramphenicol], which “Antibiotic sensitivity, NRRL 11271” value [1] is on record?
A: +

Q: And the “Antibiotic sensitivity, E2724.1” value [2]?
A: +

Q: Which MIC [3] does the source give for CCC1OC(=O)CC(O)C(C)C(OC2OC(C)C(OC3CC(C)(O)C(O)C(C)O3)C(N(C)C)C2O)C(CC=O)CC(C)C(=O)C=CC(C)=CC1C (stereo not shown) [DMOT, 23-de(mycinosyloxy)tylosin] here?
A: 0.13 µg/mL (≈ 0.179 µM)

Q: What about the ED50 [4] of the same molecule?
A: 6.3 mg/kg

Q: And the pKa [5]?
A: ~7.3

Q: What about the “antibacterial activity (in words)” value [6] of the same molecule?
A: especially active against gram-positive microorganisms and Mycoplasma species

Q: What about the MIC [7] of the same molecule?
A: 0.5 µg/mL (≈ 0.689 µM)

Q: And the “solubility in polar organic solvents” value (Solubility; most polar organic solvents, such as acetone, methanol, ethanol, dimethylformamide, chloroform and dimethyl sulfoxide)?
A: soluble

Q: What about the solubility in water (Solubility; water) of the same molecule?
A: sparingly soluble

Q: What about the MIC (Pasteurella hemolytica) of the same molecule?
A: 25 µg/mL (≈ 34.4 µM)

Q: And the MIC (Pasteurella multocida)?
A: 6.25 µg/mL (≈ 8.61 µM)

Q: And the MIC [8]?
A: 1 µg/mL (≈ 1.38 µM)

Q: And the MIC (Mycoplasma hyorhinis)?
A: 0.78 µg/mL (≈ 1.07 µM)

Q: What about the MIC (Mycoplasma gallisepticum) of the same molecule?
A: 0.097 µg/mL (≈ 0.134 µM)

Q: And the MIC [9]?
A: 0.25 µg/mL (≈ 0.344 µM)

Q: And the MIC (Mycoplasma hyopneumoniae)?
A: 0.39 µg/mL (≈ 0.537 µM)

Q: Which “Antibiotic sensitivity, NRRL 11271” value [1] does the source give for CC[C@H]1OC(=O)[C@H](C)[C@@H](O[C@H]2C[C@@](C)(OC)[C@@H](O)[C@H](C)O2)[C@H](C)[C@@H](O[C@@H]2O[C@H](C)C[C@H](N(C)C)[C@H]2O)[C@](C)(O)C[C@@H](C)C(=O)[C@H](C)[C@@H](O)[C@]1(C)O [Erythromycin] here?
A: +

Q: Which results are given for CCC[C@@H]1C[C@@H](C(=O)N[C@@H]([C@H]2O[C@H](SC)[C@H](O)[C@@H](O)[C@H]2O)[C@@H](C)O)N(C)C1 [Lincomycin]?
A: Antibiotic sensitivity, NRRL 11271 [1]: -; Antibiotic sensitivity, E2724.1 [2]: -

Q: Which “Antibiotic sensitivity, NRRL 11271” value [1] does the source give for [H]/N=C(/N)N[C@H]1[C@H](O)[C@@H](O)[C@H](O[C@@H]2O[C@@H](C)[C@](O)(C=O)[C@H]2O[C@@H]2O[C@@H](CO)[C@H](O)[C@@H](O)[C@@H]2NC)[C@@H](N/C(N)=N\[H])[C@@H]1O [Streptomycin] here?
A: +

Q: And the “Antibiotic sensitivity, E2724.1” value [2]?
A: +

Q: Which results are given for CN(C)[C@@H]1C(O)=C(C(N)=O)C(=O)[C@@]2(O)C(O)=C3C(=O)c4c(O)cccc4[C@@](C)(O)[C@H]3C[C@@H]12 [Tetracycline]?
A: Antibiotic sensitivity, NRRL 11271 [1]: +; Antibiotic sensitivity, E2724.1 [2]: +

Q: What does the source list for CN[C@H](CC(C)C)C(=O)N[C@H]1C(=O)N[C@@H](CC(N)=O)C(=O)N[C@H]2C(=O)N[C@H]3C(=O)N[C@H](C(=O)N[C@H](C(=O)O)c4cc(O)cc(O)c4-c4cc3ccc4O)[C@H](O)c3ccc(c(Cl)c3)Oc3cc2cc(c3O[C@@H]2O[C@H](CO)[C@@H](O)[C@H](O)[C@H]2O[C@H]2C[C@](C)(N)[C@H](O)[C@H](C)O2)Oc2ccc(cc2Cl)[C@H]1O [Vancomycin]?
A: Antibiotic sensitivity, NRRL 11271 [1]: +; Antibiotic sensitivity, E2724.1 [2]: +

Q: For CCC1OC(=O)CC(O)C(C)C(OC2OC(C)C(OC3CC(C)(O)C(O)C(C)O3)C(N(C)C)C2O)C(CCO)CC(C)C(=O)C=CC(C)=CC1C (stereo not shown) [dihydro-DMOT, 20-dihydro-23-de(mycinosyloxy)tylosin], which “antibacterial activity (in words)” value [6] is on record?
A: especially active against gram-positive microorganisms and Mycoplasma species
